In patent publication US9566250B2, “Artificial tissue constructs comprising alveolar cells and methods for using the same” (SANOFI PASTEUR VAXDESIGN CORPORATION, priority 2007, dated 2017):

Columns and labels:
CYP1A1 and CYP2B1 = assay: Cytochrome P450 activity of bilayer construct after induction (7-ethoxy/7-pentoxy resorufin); type: cell-based, human; conditions: 24 h exposure, then 7-ethoxy or 7-pentoxy resorufin for 30 min; FIG. 8
Description: The effects of polycyclic carcinogens on cytochrome P450 activity in the artificial tissue constructs was also analyzed. Cytochrome P450 proteins are involved in the metabolism of many exogenous and endogenous chemicals, including drugs, steroids, and toxins. Cytochrome P450 induction is indicative of chemical metabolism. Cellular P450 enzyme activity of CYP1A1 & CYP2B1 families was studied. The bilayer constructs were prepared from biopsy samples of three different patients.
The mucosal construct was exposed to either 3-methylcholantherine and β-nitrophenol (FIG. 8) for 24 h, followed by 7-ethoxy resorufin (5-15 μM) or 7-pentoxy resorufin (5-15 μM) addition (for 30 min) to quantify CYP 1A1 and CYP 2B1 activity, respectively. A β-glucuronidase and arylsulfatase enzyme cocktail was then added to the samples and they were incubated for 2 h at 37° C. Fluorometric absorbance was then measured. A standard curve was prepared using resorufin to quantify the P450 activity. 3-Methylcholanthere and β-nitrophenol are known environmental carcinogens found in cigarette smoke and in airborne industrial byproducts.

[1] = tested on: alveolar artificial tissue construct cells; assay: WST-1 cellular (mitochondrial) activity of treated construct cells; type: cell-based, human; conditions: stated in the WST-1 paragraph; 24-h treatments
Description: Cellular uptake of WST-1 was used to determine the mitochondrial activity of live cells. A spectroscopic reading of the collected/metabolized tetrazolium salt was performed to compare the cellular activity of hormone or bacterial particle treated cells to the non-treated control cells after 24-h treatments.

[2] = tested on: bilayer mucosal construct (primary human alveolar epithelial and endothelial cells); assay: Cytokine production by bilayer alveolar mucosal construct (BioPlex/Luminex 22-plex); type: cell-based; conditions: corticosteroid addition for 24 h vs control; FIG. 7
Description: Immunosuppressant effects on the cultured mucosal construct were tested by the addition of, for example, dexamethasone (0.5-0.1 μM) and hydrocortisone (5-10 μM) for 24 h. The effect of, for example, diesel particles (0.01-0.2 mg/mL) and urban dust (0.01-0.2 mg/mL) exposure was also studied in the alveolar tissue. NIST standards Diesel Particulate Matter (SRM 2975), and Urban Dust (SRM 1649a), containing both organic and inorganic components, were used as environmental irritants (FIG. 3). A BioPlex 22-Plex™ cytokine kit (Upstate) was used to quantify the cytokine levels in the collected media.
The cytokine profile of the bilayer construct prepared in a 0.33 cm^2 area Transwell™ cell culture device was compared with the alveolar epithelial cells cultured in T-25 flasks. Controls for each experiment with or without the various irritant treatments were also included in the experimental design.
The effects of immunosuppressant hormonal treatment (dexamethasone and hydrocortisone) and exposure to bacterial particles (E. coli and Staphylococcus aureus) on respiratory cells were examined by quantifying cytokine production by the mucosal tissue. […]
Using Luminex™ immunoassay technology, we simultaneously quantified the 22 cytokine and chemokines in the collected treatment media. […]

Row | Structure (SMILES) | p450 (CYP1A1 and CYP2B1) activation of construct cells (CYP1A1 and CYP2B1) | activation of alveolar artificial tissue construct cells [1] | cytokine production by the native cells of the bilayer mucosal construct [2]
1 | Cc1ccc2cc3c(ccc4ccccc43)c3c2c1CC3 [3-methylcholanthere] | activated | activated | 
2 | O=c1cc(-c2ccccc2)oc2ccc3ccccc3c12 [BNF, β-napthophenol] | less activated | less activated | 
3 | C[C@]12CCC(=O)C=C1CC[C@@H]1[C@@H]2[C@@H](O)C[C@@]2(C)[C@H]1CC[C@]2(O)C(=O)CO [hydrocortisone] |  |  | significant decrease
